± gives the expanded uncertainty stated by the source.
Assays:
[1] = 100 kPa, Liquid, Vibrating tube method
[2] = molar heat capacity at constant pressure; details: 100 kPa, Liquid, Extra sensitive DSC
[3] = xn = mol fraction of the nth substance listed; details: 100 kPa, Liquid, Vibrating tube method, x2 = 0
[4] = molar heat capacity at constant pressure; xn = mol fraction of the nth substance listed; details: 100 kPa, Liquid, Extra sensitive DSC, x2 = 0

SMILES	mass density ([1]; 298.15 K)	mass density ([1]; 308.15 K)	mass density ([1]; 318.15 K)	mass density ([1]; 328.15 K)	molar heat capacity at constant pressure ([2]; 298.8 K)	molar heat capacity at constant pressure ([2]; 308.7 K)	molar heat capacity at constant pressure ([2]; 318.6 K)	molar heat capacity at constant pressure ([2]; 328.5 K)	mass density ([3]; 298.15 K)	mass density ([3]; 308.15 K)	mass density ([3]; 318.15 K)	mass density ([3]; 328.15 K)	molar heat capacity at constant pressure ([4]; 298.8 K)	molar heat capacity at constant pressure ([4]; 308.7 K)	molar heat capacity at constant pressure ([4]; 318.6 K)	molar heat capacity at constant pressure ([4]; 328.5 K)
Cc1ccc(C(C)C)cc1 [1-(1-methylethyl)-4-methylbenzene]	852.99 ± 0.71 kg/m3	844.94 ± 0.71 kg/m3	836.86 ± 0.71 kg/m3	828.75 ± 0.71 kg/m3	240.9 ± 9.3 J/K/mol	244.8 ± 9.5 J/K/mol	249.4 ± 9.7 J/K/mol	254.6 ± 9.9 J/K/mol								
CCCO [propan-1-ol]	799.46 ± 0.71 kg/m3	791.36 ± 0.71 kg/m3	783.1 ± 0.71 kg/m3	774.63 ± 0.71 kg/m3	144.5 ± 5.6 J/K/mol	150.9 ± 5.8 J/K/mol	157.4 ± 6.1 J/K/mol	164.5 ± 6.4 J/K/mol								
CCCO [propan-1-ol] + Cc1ccc(C(C)C)cc1									799.46 ± 0.71 kg/m3	791.36 ± 0.71 kg/m3	783.1 ± 0.71 kg/m3	774.63 ± 0.71 kg/m3	144.5 ± 5.6 J/K/mol	150.9 ± 5.8 J/K/mol	157.4 ± 6.1 J/K/mol	164.5 ± 6.4 J/K/mol
